Experimental data: the supplement of paper PMC10307832

Legend:
Experiment in all cases: relative viability (nuclei count vs DMSO), 5 days (fraction); higher = more cells survive
[1] = compound: COc1cc2nc(N3CCCN(C)CC3)nc(NC3CCN(Cc4ccccc4)CC3)c2cc1OC + Cc1nc(NC(=O)N2CCC[C@H]2C(N)=O)sc1-c1ccnc(C(C)(C)C(F)(F)F)c1 [Alpelisib] (partner 2 µM)
Procedure, shortened: (§1)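 Lung cancer cell lines in 1536-well plates got either a single drug or a fixed anchor-drug dose together with five library-drug doses (not always all listed) in √10 steps, by pin tool, on the day after seeding. Nuclei were counted after 5 days, and relative viability is the treated-to-vehicle ratio of nuclei counts. Values are medians of duplicate plates.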

AZD6482 + Linsitinib = compound: Cc1cc([C@@H](C)Nc2ccccc2C(=O)O)c2nc(N3CCOCC3)cc(=O)n2c1 [AZD6482] + C[C@]1(O)C[C@@H](c2nc(-c3ccc4ccc(-c5ccccc5)nc4c3)c3c(N)nccn32)C1 [Linsitinib] (partner 1 µM)
Procedure, shortened: as §1

AZD6482 + Bortezomib = compound: Cc1cc([C@@H](C)Nc2ccccc2C(=O)O)c2nc(N3CCOCC3)cc(=O)n2c1 [AZD6482] + CC(C)C[C@H](NC(=O)[C@H](Cc1ccccc1)NC(=O)c1cnccn1)B(O)O [Bortezomib] (partner 0.002 µM)
Procedure, shortened: as §1

[2] = compound: COc1cc2nc(N3CCCN(C)CC3)nc(NC3CCN(Cc4ccccc4)CC3)c2cc1OC + O=C(c1cc(Cc2n[nH]c(=O)c3ccccc23)ccc1F)N1CCN(C(=O)C2CC2)CC1 [Olaparib] (partner 8 µM)
Procedure, shortened: as §1

Cell Line | relative viability ([1]; first compound 0.2 µM) | relative viability ([1]; first compound 0.6325 µM) | relative viability ([1]; first compound 2 µM) | relative viability ([1]; first compound 6.325 µM) | relative viability (AZD6482 + Linsitinib; first compound 0.08 µM) | relative viability (AZD6482 + Linsitinib; first compound 0.253 µM) | relative viability (AZD6482 + Linsitinib; first compound 0.8 µM) | relative viability (AZD6482 + Linsitinib; first compound 2.53 µM) | relative viability (AZD6482 + Linsitinib; first compound 8 µM) | relative viability (AZD6482 + Bortezomib; first compound 0.08 µM) | relative viability (AZD6482 + Bortezomib; first compound 0.253 µM) | relative viability (AZD6482 + Bortezomib; first compound 0.8 µM) | relative viability (AZD6482 + Bortezomib; first compound 2.53 µM) | relative viability (AZD6482 + Bortezomib; first compound 8 µM) | relative viability ([2]; first compound 0.2 µM) | relative viability ([2]; first compound 0.6325 µM) | relative viability ([2]; first compound 2 µM) | relative viability ([2]; first compound 6.325 µM)
NCI-H1975 | 0.718 | 0.597 | 0.727 | 0.616 | 0.748 | 0.938 | 0.874 | 0.739 | 0.592 | 0.345 | 0.375 | 0.384 | 0.323 | 0.301 | 0.761 | 0.755 | 0.915 | 0.823
Calu-6 | 0.884 | 0.926 | 1 | 0.976 | 0.726 | 0.889 | 0.89 | 0.701 | 0.899 | 0.889 | 0.973 | 0.978 | 0.823 | 0.889 | 0.598 | 0.542 | 0.591 | 0.537
NCI-H1993 | 0.668 | 0.637 | 0.692 | 0.662 | 0.759 | 0.775 |  |  | 0.654 | 0.848 | 0.94 |  |  | 0.852 | 1.03 | 1.05 | 1.14 | 1.2
RERF-LC-KJ | 0.905 | 0.878 | 0.902 | 0.661 | 0.757 | 0.814 | 0.822 | 0.764 | 0.784 | 0.825 | 0.907 | 0.895 | 0.921 | 0.865 | 0.857 | 0.898 | 1.04 | 0.637
NCI-H23 | 0.623 | 0.693 | 0.775 | 0.675 | 0.532 | 0.477 | 0.533 | 0.338 | 0.57 | 0.958 | 0.861 | 1.29 | 0.621 | 0.861 | 0.299 | 0.271 | 0.344 | 0.285
HCC-366 | 0.519 | 0.558 | 0.468 | 0.283 | 0.383 | 0.438 | 0.477 | 0.151 | 0.141 | 0.944 | 0.969 | 1.06 | 0.84 | 0.742 | 0.451 | 0.304 | 0.376 | 0.294
EMC-BAC-2 | 0.765 | 0.69 | 0.784 | 0.77 | 0.744 | 0.681 | 0.781 | 0.529 | 0.587 | 1.02 | 1.07 | 1.12 | 0.838 | 0.948 | 0.494 | 0.406 | 0.438 | 0.511
NCI-H2405 | 0.784 | 0.772 | 0.835 | 0.632 | 0.399 |  | 0.673 | 0.427 | 0.629 | 0.77 | 0.895 | 1.06 | 0.73 | 0.661 | 0.886 | 0.847 | 0.91 | 0.883
EPLC-272H | 0.952 | 0.904 | 1.05 | 0.912 | 0.999 |  | 0.898 | 0.667 | 0.537 | 0.706 |  | 0.973 | 0.904 | 0.834 | 0.738 | 0.888 | 0.767 | 0.329
EBC-1 | 0.82 | 0.798 | 0.787 | 0.697 | 0.559 | 0.76 | 0.788 | 0.348 | 0.408 | 0.498 | 0.532 | 0.463 | 0.358 | 0.381 | 0.698 | 0.647 | 0.757 | 0.5
NCI-H1915 | 1.06 | 0.998 | 1.1 | 1.1 | 0.982 | 1.1 | 1.09 | 1.03 | 1.1 | 0.861 | 0.86 | 1.04 | 0.849 | 1.05 | 0.243 | 0.267 | 0.272 | 0.251
NCI-H596 | 0.616 | 0.458 | 0.498 | 0.44 | 0.789 | 0.979 | 1.01 | 0.957 | 1.02 | 0.988 | 0.95 | 0.946 | 1.01 | 0.985 | 0.677 | 0.721 | 0.736 | 0.672
NCI-H322M | 0.741 | 0.814 | 0.781 | 0.68 | 0.718 | 0.601 | 0.707 | 0.355 | 0.651 | 1.18 | 1.22 | 1.13 | 0.795 | 0.871 | 0.763 | 0.782 | 0.771 | 0.688
NCI-H1299 | 1.03 | 1.08 | 1.06 | 1.08 | 0.907 | 1.03 | 1.11 | 0.803 | 1.17 | 0.916 | 1.03 | 1.11 | 0.957 | 1.1 | 0.951 | 0.909 | 0.997 | 0.928
NCI-H2228 | 0.587 | 0.685 | 0.661 | 0.409 | 0.48 | 0.38 | 0.38 | 0.469 | 0.428 | 0.754 | 0.986 | 0.91 | 0.849 | 1.13 | 0.637 | 0.62 | 0.46 | 0.35
IA-LM | 0.688 | 0.823 | 1.02 | 1.01 | 0.861 | 0.732 | 0.786 |  | 0.969 | 1.11 | 0.876 | 0.953 | 0.416 | 0.496 | 0.682 | 0.75 | 0.831 | 0.756
NCI-H647 | 1.12 | 1.13 | 1.18 | 0.448 | 0.877 |  | 0.739 | 0.7 | 0.659 | 0.784 |  | 0.777 | 0.582 | 0.771 | 0.517 | 0.443 | 0.537 | 0.242
NCI-H2085 | 1.06 | 0.972 | 1 | 0.799 | 0.453 | 0.422 | 0.327 | 0.26 | 0.467 | 0.824 | 0.659 | 0.766 | 0.393 | 0.458 | 0.775 | 0.82 | 0.869 | 0.785
SW 1573 | 0.614 | 0.696 | 0.729 | 0.724 | 0.66 | 0.678 | 0.493 | 0.443 | 0.572 | 0.92 | 0.86 | 0.877 | 0.613 | 0.633 | 0.496 | 0.473 | 0.487 | 0.125
NCI-H727 | 0.633 | 0.615 | 0.593 | 0.328 | 0.203 | 0.296 | 0.284 |  | 0.281 | 0.908 | 0.868 | 1.06 |  | 0.887 | 0.646 | 0.616 | 0.772 | 0.59
NCI-H441 | 0.919 |  | 0.601 | 0.655 | 0.459 | 0.499 | 0.554 | 0.323 | 0.531 | 0.617 | 0.481 | 0.595 | 0.357 | 0.449 | 0.566 | 0.495 | 0.691 | 0.551
LOU-NH91 | 0.736 | 0.755 | 0.588 | 0.642 | 0.782 | 0.913 | 0.842 | 0.598 | 0.665 | 0.453 | 0.473 | 0.519 | 0.475 | 0.6 | 0.911 | 0.918 | 0.968 | 0.958
NCI-H3122 | 0.73 | 0.803 | 0.834 | 0.723 | 0.828 | 0.993 | 1.02 | 0.85 | 0.816 | 0.87 | 0.989 | 1.1 | 0.803 | 1.09 | 0.644 | 0.616 | 0.634 | 0.629
NCI-H460 | 0.481 | 0.483 | 0.42 | 0.242 | 0.717 | 0.703 | 0.783 | 0.306 | 0.206 | 0.957 | 0.956 | 1.17 | 0.685 | 0.958 | 0.425 | 0.397 | 0.37 | 0.323
NCI-H650 | 1.06 | 0.997 | 1.18 | 1 | 0.856 |  | 0.753 | 0.362 | 0.491 | 0.895 |  | 0.927 | 0.424 | 0.57 | 0.445 | 0.356 | 0.434 | 0.396
NCI-H661 | 0.556 | 0.64 | 0.809 | 0.774 | 0.446 | 0.422 | 0.398 |  | 0.37 | 0.71 | 0.608 | 0.723 |  | 0.622 | 0.731 | 0.713 | 0.822 | 0.782
NCI-H1734 | 0.657 | 0.613 | 0.798 | 0.736 | 0.666 | 0.589 | 0.701 | 0.384 | 0.554 | 0.791 | 0.893 | 0.977 | 0.525 | 0.556 | 0.61 | 0.533 | 0.645 | 0.594
LXF-289 | 1.04 | 0.964 | 1.06 | 0.986 | 0.993 | 1 | 0.971 | 0.806 | 0.781 | 0.972 | 1 | 1.05 | 0.845 | 0.947 | 1.03 | 1.07 | 1.12 | 1.05
H3255 | 0.632 | 0.852 | 0.86 | 0.523 | 0.919 | 0.907 | 0.945 | 0.602 | 0.729 | 0.738 | 0.896 | 0.874 | 0.382 | 0.559 | 0.592 | 0.552 | 0.541 | 0.562
201T | 1.01 | 0.998 | 1.05 | 1.01 | 1.03 | 0.969 | 1.01 | 0.808 | 0.867 | 1.08 | 1.08 | 1.14 | 0.891 | 1.11 | 0.849 | 0.853 | 0.875 | 0.802
